In patent publication US6365628B1 (Thia Medica AS, priority 1998, dated 2002):

How the values were obtained:
[1] = system: chinese hamster ovary cells; assay: Chromosomal aberrations in cultured chinese hamster ovary cells; format: cell-based; settings: doses tested 12-140 mg/ml
obese Zucker fa/fa rats = assay: Lipid lowering effect in obese Zucker fa/fa rats (Example 3); format: in vivo, rat; settings: 300 mg/day/kg by gavage once daily for 10 days, control palmitic acid
Description: (§1) Glucose (GLU, Boehringer Mannheim, Germany), free fatty acids (NEFA, C ACS-ACOD kit; Wako Chemicals, Dalton, USA) and b-hydroxybutyrate (310-A kit; Sigma Diagnostics Inc., St. Louis, USA) concentrations were measured using enzymatic methods. Insulin concentrations were determined with radioimmunoassay by (CIS bio International, Gif sur Yvette, France) using rat insulin as standard in the Zucker rats. In the Wistar Charles River rats, plasma glucose concentrations were measured with the aid of Beckman Glucose Analyzer (Fullerton, Calif., USA). Plasma insulin levels were measured using a RIA kit from Linco Research Inc. (St. Charles, Mo., USA). Phospholipids were measured by the enzymatic method of bioMérieux, Marcy-l {grave over ( )}Etoile, France, Triacylglycerol by the Technicon Method no. SA4-0324L90, USA and Cholesterol by the Technicon Method no. SA4-0305L90, USA.
Male obese Zucker fa/fa rats, weighing 100 g at the start of the experiment, were housed in pairs in metal wire cages in a room maintained at 12 h light-dark cycles and a constant temperature of 20±3° C. The animals were acclimatised for at least one week under these conditions before the start of the experiment.
TTA (tetradecylthioacetic acid) prepared in accordance with procedure described previously, and palmitic acid (control), was suspended in 0.5% (w/v) carboxymethyl cellulose (CMC). Six animals were used in both groups. TTA (tetradecylthioacetic acid) and palmitic acid were administered at a dose of 300 mg/day/kg body weight, by gastric intubation (gavage) once daily for 10 days. The rats were fasted for 2 hours before termination of the experiment. Blood and organs were collected. Lipid concentrations in plasma were determined using an autoanalyzer, as described in the method section.

[2] = system: Wistar Charles River rats; assay: High fat diet induced hyperinsulinemia (Example 11); format: in vivo, rat; settings: HF diet supplemented with TTA, 21 days, overnight fast (FIG. 3)
Description: as §1
Rats weighing 280-360 g were divided into 3 groups (n=6) and fed with three different diets: standard rat chow, high fat diet (HF) and HF supplemented with TTA. After 21 days on their respective diets, blood was collected after an overnight fast from the tail vein. The data are shown as mean±SEM. Results were analysed by ANOVA and different letters denote statistical significance (p<0.05).

[3] = system: Wistar Charles River rats; assay: Euglycemic hyperinsulinemic clamp, high fat diet induced insulin resistance (Example 12); format: in vivo, rat; settings: HF diet supplemented with TTA, 21 days, 90 min clamp (FIG. 4)
Description: After 21 days on their respective diets (see above), the rats were anaesthetised by injection of xylazine hydrochloride (Rometar SPOFA, Prague, Czech Republic; 10 mg/ml) and ketamine hydrochloride (Narkamon SPOFA, Prague, Czech republic; 75 mg/ml), and fitted with chronic carotid artery and jugular vein cannulas as described by Koopmans et al. (Koopmans, S. J., et al., Biochim Biophys Acta, 1115, […] 1992.). The cannulated rats were allowed to recover for two days after surgery before the clamping studies which were carried out according to Kraegen et al. (Kraegen, E. W., et al., Am J Physiol, 248, E353-E362 1983.). Thus, on the third day after surgery, unrestrained conscious rats were given a continuous infusion of porcine insulin (Actrapid, Novo Nordisk, Denmark) at a dose of 6.4 mU per kg per min to achieve plasma insulin levels in the upper physiological range. The arterial blood glucose concentration was clamped at the basal fasting level, by variable infusion of a 30% w/v glucose solution (Leciva, Prague, Czech Republic). […]
Rats weighing 330±20 g were divided into 3 groups (n=9) and fed with three different diets: standard rat chow, high fat diet (HF) and HF supplemented with TTA. […] The glucose infusion rate (GIR) was determined from the period of the clamp where glycemia got stabilised, i.e. between 45-90 minutes after clamp commencement. […]

[4] = system: 4 month old obese Zucker (fa/fa) rats; assay: Blood insulin and glucose in 4 month old obese Zucker (fa/fa) rats (Example 13); format: in vivo, rat; settings: 4 month old Zucker (fa/fa) rats, chow with 0.15% TTA, 21 days (FIG. 6)
Description: as §1
The rats were given a standard chow diet, either with (n=5) or without (n=6) 0.15% TTA. Following 21 days of treatment, blood was collected and the levels of insulin and glucose measured. Data are means±S.D.

old obese Zucker rats = assay: Plasma free fatty acids, ketone bodies and liver HMG-CoA synthase in old obese Zucker rats (Table 7); format: in vivo, rat; settings: 21 week-old male obese Zucker (fa/fa) rats, standard diet with 0.15% TTA for 15 days, means ± SD
Description: as §1
Freshly isolated livers from individual old Zucker rats, were homogenised in ice-cold sucrose buffer (0.25 M sucrose, 10 mM HEPES (pH 7.4) and 2 mM EDTA). Post-nuclear and mitochondrial fractions were prepared using preparative differential centrifugation according to DeDuve et al. (De Duve, C., et al., Biochem. J., 60, 604-617 1955.) Modifications, purity and yield were as described earlier (Garras, A., et al., Biochim. Biophys. Acta, 1255, 154-160 1995.). Acid soluble products were measured in post-nuclear and mitochondrial enriched fractions, using [1-^14C]-palmitoyl-CoA and [1-^14C]-palmitoyl-L-carnitine (Radiochemical Centre, Amersham, England) as substrates as described earlier (Willumsen, N., et al., J. Lipid Res., 34, 13-22 1993. Carnitine palmitoyltransferase-I and -II activities were measured in the post-nuclear and mitochondrial fractions essentially as described by Bremer (Bremer, J., Biochim. Biophys. Acta, 665, 628-631 1981.) and 3-hydroxy-3-methylglutharyl-CoA synthase was measured according to Clinkenbeard et al. (Clinkenbeard, K. D., et al., J. Biol. Chem, 250, 3108-3116 1975.) in the mitochondrial fractions.
Data are means±SD of six animals in both the control- and the experimental group. Free fatty acids (FFA) and ketone bodies ([…]) were measured in plasma and 3-hydroxy-3-methylglutaryl (HMG) -CoA synthase activities were measured in mitochondrial fractions prepared from the liver from 21 week-old male obese Zucker (fa/fa) rats given either a standard diet (control) or a standard diet enriched with 0.15% TTA for 15 days.

## Tetradecylthioacetic acid [TTA]
[1]
  Chromosomal aberrations in cultured chinese hamster ovary cells: no aberrations were induced
Obese Zucker fa/fa rats
  Decreased lipid level in plasma (% of control) Cholesterol: 73 % of control
  Decreased lipid level in plasma (% of control) Phospholipids: 71 % of control
  Decreased lipid level in plasma (% of control) Triglycerides: 72 % of control
[2]
  High fat diet-induced hyperinsulinemia: prevents high fat diet-induced hyperinsulinemia
[3]
  Glucose infusion rate (GIR) in euglycemic hyperinsulinemic clamp: fully normal
[4]
  Blood glucose concentration: reduces
  Blood insulin concentration: reduces
Old obese Zucker rats; liver mitochondrial fractions
  HMG-CoA synthase activity (nmol/min/mg protein): 27 ± 6 nmol/min/mg protein
Old obese Zucker rats; plasma
  4-OH butyrate: 3.44 ± 1.37 mmol/L
  FFA (mEq/L): 0.53 ± 0.21 mEq/L
  FFA/ketone ratio: 0.17 ± 0.09
